One series concerns neuroblastoma (NB) cells. To be noted: cited from earlier work.
The conditions of series [1]: human patients treated for epilepsy; cited from earlier work.
Series [2] concerns BON human GI carcinoid cancer cells. Put plainly: Western blot analysis of GI carcinoid cells. The series is classed as cell-based. Here is the method: Cell Culture BON human GI carcinoid cancer cells, kindly provided by Drs. B. Mark Evers and Courtney M. Townsend, Jr.
Total protein concentrations were quantified with a bicinchoninic acid assay kit (Pierce Biotechnology, Rockford, Ill., USA). Denatured cellular extracts were resolved by SDS-PAGE, transferred to nitrocellulose membranes (Schleicher and Schuell, Keene, N.H., USA), blocked in milk, and incubated with appropriate antibodies. The antibody dilutions were: 1:1,000 for Notch1 (Santa Cruz Biotechnology, Santa Cruz, Calif., USA), mammalian achaete-scute homolog 1 (ASCL1; BD Biosciences, San Diego, Calif., USA), chromogranin A (Zymed Laboratories, San Francisco, Calif., USA), and cyclin D1 (Cell Signaling Technology, Danvers, Mass., USA), 1:2,000 for p21 (Cell Signaling Technology) and p27 (Santa Cruz Biotechnology), and 1:10,000 for glyceraldehyde-3-phosphate dehydrogenase (G3PDH; Trevigen, Gaithersburg, Md., USA). Horseradish peroxidase conjugated goat anti-rabbit or goat anti-mouse secondary antibodies (Pierce Biotechnology) were used depending on the source of the primary antibody. For visualization of the protein signal, Immunstar (Bio-Rad Laboratories, Hercules, Calif., USA) or SuperSignal West Femto (Pierce Biotechnology) kits were used per the manufacturer's instructions.
Cell Culture BON human gastrointestinal (GI) carcinoid tumor cells, kindly provided by Drs. B. Mark Evers and Courtney M. Townsend, Jr.
Total protein concentrations were quantified with a bicinchoninic acid assay kit (Pierce Biotechnology, Rockford, Ill.). Denatured cellular extracts were resolved by SDS-PAGE, transferred onto nitrocellulose membranes (Schleicher and Schuell, Keene, N H), blocked in milk, and incubated with appropriate antibodies. The antibody dilutions were: 1:1,000 for Notch1 (Santa Cruz Biotechnology, Santa Cruz, Calif.), mammalian achaete-scute homolog 1 (ASCL1; BD Biosciences, San Diego, Calif.), chromogranin A (Zymed Laboratories, San Francisco, Calif.), and cyclin D1 (Cell Signaling Technology, Danvers, Mass.), 1:2,000 for p21 (Cell Signaling Technology) and p27 (Santa Cruz Biotechnology), and 1:10,000 for glyceraldehyde-3-phosphate dehydrogenase (G3PDH; Trevigen, Gaithersburg, Md.). Horseradish peroxidase conjugated goat anti-rabbit or goat anti-mouse secondary antibodies (Pierce Biotechnology) were used depending on the source of the primary antibody. For visualization of the protein signal, Immunstar (Bio-Rad Laboratories, Hercules, Calif.) or SuperSignal West Femto (Pierce Biotechnology) kits were used per the manufacturer's instructions.

The test system of another series is Notch1. Put plainly: CBF1 binding site luciferase reporter assay. The settings on record: GI carcinoid cells, VPA 48 hours. The series is classed as cell-based, human. Here is the method: Luciferase Reporter Assays GI carcinoid tumor cells were transiently transfected with luciferase constructs as previously described (Kunnimalaiyaan, M. et al., Conservation of the Notch1 signaling pathway in gastrointestinal carcinoid cells A J Physiol Gastrointest Liver Physiol 2005; 289:G636-642). Wild-type (4xwtCBF1Luc; 2 μg) or mutant (4xmutCBF1Luc; 2 μg) CBF1-luciferase reporter plasmids were co-transfected with CMV-β-gal (0.5 μg) (Hsieh J J et al., Truncated Mammalian Notch1 Activates CBF1/RBPJk-Repressed Genes by a Mechanism Resembling That of Epstein-Barr Virus EBNA2. Mol Cell Biol 1996; 16:952-959). In experiments with the γ-secretase inhibitor, N-[N-(3,5-difluorophenacetyl)-L-alanyl]-S-phenylglycine t-butyl ester (DAPT; EMD Biosciences, Darmstadt, Germany), to inhibit Notch1 cleavage and activation, cells were pretreated for 45 minutes with DAPT (50 μM) then treated with 4 mM VPA. […] Luciferase levels were measured using a Monolight 2010 Luminometer (Analytical Luminescence Laboratory, San Diego, Calif.). […]
In general terms: Reporter assays use an easily measured gene product as a stand-in for the process of interest.

The subject of series [3] is H727 human lung carcinoid cancer cells. Put plainly: Western blot analysis of pulmonary carcinoid cells. The series is classed as cell-based. A general note: In western blotting, separated proteins are transferred to a membrane and probed.
The subject of another series is BON cells. In words: Subcutaneous GI carcinoid xenograft study. The settings on record: 366 mg/kg daily i.p., 20 days. The series is classed as in vivo, mice. Here is the method:
Xenograft Studies BON cells (1×10^6) were suspended in Hanks' balanced salt solution (Invitrogen) and injected subcutaneously into the right flank of 12 male nude athymic NU/NU mice (Charles River Laboratories, Wilmington, Mass.) under anesthesia. After palpable tumors developed, the mice were divided into 2 groups of 6 animals. The control group received daily intraperitoneal (i.p.) injections of saline while the treatment group received daily i.p. injections of VPA (366 mg/kg) for 20 days. The length and width of tumors were measured with a vernier caliper every 4 days and tumor volumes were calculated using the formula, volume=width^2×length×0.52. At the end of the experiment the mice were sacrificed and the tumors were resected and frozen in liquid nitrogen. Whole tumor cell protein lysates were prepared for immunoblotting as previously described (Vaccaro A et al., In-vivo activation of Raf-1 inhibits tumor growth and development in a xenograft model of human medullary thyroid cancer. Anticancer Drugs 2006; 17:849-853). This experiment was performed in accordance with the protocols of the University of Wisconsin Medical School Animal Care and Use Committee.

The values below come from patent publication US8338482B2, “Modulating notch1 signaling pathway for treating neuroendocrine tumors” (Wisconsin Alumni Research Foundation, priority 2007, dated 2012).

Each structure is given as a SMILES string.

As to `CCCC(CCC)C(=O)O` [VPA, 2-propylpentanoic acid], the cell death entry with neuroblastoma (NB) cells was “increased cell death”. Also, in the series on neuroblastoma (NB) cells, the “levels of intracellular Notch-1 and Hes-1” value is “increased levels”. Further, the therapeutic range in series [1] was 50 to 125 µg/mL. Moreover, the ASCL1 protein entry is reported as “dose-dependent decrease” in series [2] (VPA); “dose-dependent decrease” in series [3] (VPA); “undetectable levels” in series [3] (VPA 4 mM, 2 days). Further, the “full-length Notch1 and NICD” value in series [2] (VPA 0-4 mM, 2 days) is “increase”; in series [3] (VPA 0-4 mM, 2 days), “increase”. Moreover, the “protein levels of p21 and p27” value in series [2] (VPA 1 mM) is on record as “increase in protein levels”. In addition, the “cyclin D1 level” value in series [2] (VPA 4 mM, 4 days) was “almost undetectable”. For the same molecule, the “protein levels of CgA” value is reported as “decreased” in series [2] (VPA, two days) and “decreased” in series [3] (VPA, two days). Besides, the “increase in CBF1 luciferase activity” value in the series with Notch1 is given as 5 fold. For the same molecule, the “growth of the tumors” value with BON cells is listed as “almost static”. Also, the neurotoxicity entry in the series on BON cells was “no signs of neurotoxicity”. For the same molecule, the “expression of ASCL1 in resected tumors” value in the series with BON cells (Western blot) was “decreased expression”.
